Patent US20070292396A1, “COMBINATION THERAPY WITH ONCOLYTIC ADENOVIRUS” (priority 2006, published 2007)
Read-outs that look alike come from different tables or passages of the source.

Tests used:
[1] = tested on: U-87 MG human glioma xenograft; assay: Intracranial human glioma xenograft, Delta-24/CPT-11 sequential treatment; type: in vivo, athymic mice; details: Delta-24 1.5×10^8 viral particles intratumoral day 3; CPT-11 5 mg/kg i.p. days 7, 12, 20; control median survival 27 days
Method: Animal model. To assess the potential therapeutic relevance of the findings from the in vitro studies, we tested the Delta-24/CPT-11 sequential treatment in an in vivo model of a human glioma xenograft implanted intracranially. The U-87 MG cell line was selected as an exemplary cell line because it produces gliomas in nude mice with highly predictable growth kinetics and well-characterized pathologic features (Lal et al., 2000). To perform a reliable multiple-dose experiment, an implantable guide-screw system was developed that allows for multiple, precise intratumoral administrations of a therapeutic agent(s) (Lal et al., 2000) and has been validated for testing the antiglioma effect of Delta-24 (Fueyo et al., 2003). In this study, 5×10^5 cells of the U-87 MG human glioma cell line were engrafted in the caudate nucleus of athymic mice (Harlan- Sprague-Dawley, Inc., Indianapolis, Ind.). On day 3 after cell implantation, animals were treated with a single intratumoral injection of Delta-24 or UVi Delta-24 (1.5×10^8 viral particles in 5 μL). […] H&E-stained slides were analyzed for evidence of tumor, necrosis, and viral nuclear inclusions. […]
Statistical analyses. […] The in vivo anticancer effect of different treatments was assessed by plotting survival curves according to the Kaplan-Meier method, and groups were compared using the log-rank test.

[2] = tested on: U-87 MG and U-251 MG human glioma cells; assay: Cell cycle analysis (DNA content, flow cytometry), Delta-24 and CPT-11; type: cell-based; details: CPT-11 4 μmol/L, alone or 48 hours after 10 MOIs Delta-24
Method: (§1) Cell cycle analysis. The DNA content was measured in samples of 10^6 cells that had been infected with 10 MOIs of Delta-24 or UVi Delta-24 or had been mock infected. Forty-eight hours later, cultures were treated with CPT-11 (4 μmol/L) or vehicle. Cells were trypsinized 3 to 5 days after drug treatment, fixed in 70% ice-cold ethanol, and incubated with propidium iodide (5 μg/mL) and RNase A (1 μg/mL) for 20 minutes at 37° C. All DNA content measurements were done with an EPICS XL-MCL cytometer (Coulter Corp., Hialeah, Fla.) equipped with an air-cooled argon ion laser emitting 488 nm at 15 mW. A multicycle program (Phoenix Flow System; Phoenix Controls Corp., San Diego, Calif.) was used for data analysis. Cell viability assays. The chemosensitivity of the treated glioma cells was assessed by using the tetrazolium salt 3-(4,5-dimethylthiazol-2-yl)-2,5-diphenyltetrazolium bromide (Sigma-Aldrich) to measure cell viability. For this assay, 2×10^3 cells per well were seeded in 96-well microtiter plates and infected 24 hours later with Delta-24 (at 1, 2.5, 5, or 10 MOs) or Uvi Delta-24 (10 MOs) or were mock infected. […] The plates were then incubated for an additional 4 hours and then read on a Spectramax 190 microplate reader (Molecular Devices, Sunnyvale, Calif.) at a test wavelength of 570 nm.

[3] = tested on: U-87 MG and U-251 MG glioma cells; assay: Cell viability assay (MTT), CPT-11 and Delta-24, results stated for both cell lines; type: cell-based, human
Method: as §1, with “viability. […] Forty-eight hours after adenoviral treatment, the” for “viability. For this assay, 2×10^3”, “cells” for “cells per well”, “were treated” for “were seeded in 96-well microtiter plates and infected 24 hours later”, “with various concentrations of CPT-11. Triplicate wells” for “with Delta-24 (at 1, 2.5, 5, or 10 MOs) or Uvi Delta-24 (10 MOs) or”, “were used for each condition.” for “were mock infected.”

U-251 MG cells = assay: Cell viability assay (MTT), CPT-11 after adenoviral infection; type: cell-based; details: Homo sapiens, U-251, 48 h, CPT-11 added 48 hours later
Method: (§2) Cell cycle analysis. The DNA content was measured in samples of 10^6 cells that had been infected with 10 MOIs of Delta-24 or UVi Delta-24 or had been mock infected. Forty-eight hours later, cultures were treated with CPT-11 (4 μmol/L) or vehicle. Cells were trypsinized 3 to 5 days after drug treatment, fixed in 70% ice-cold ethanol, and incubated with propidium iodide (5 μg/mL) and RNase A (1 μg/mL) for 20 minutes at 37° C. All DNA content measurements were done with an EPICS XL-MCL cytometer (Coulter Corp., Hialeah, Fla.) equipped with an air-cooled argon ion laser emitting 488 nm at 15 mW. A multicycle program (Phoenix Flow System; Phoenix Controls Corp., San Diego, Calif.) was used for data analysis. Cell viability assays. The chemosensitivity of the treated glioma cells was assessed by using the tetrazolium salt 3-(4,5-dimethylthiazol-2-yl)-2,5-diphenyltetrazolium bromide (Sigma-Aldrich) to measure cell viability. For this assay, 2×10^3 cells per well were seeded in 96-well microtiter plates and infected 24 hours later with Delta-24 (at 1, 2.5, 5, or 10 MOs) or Uvi Delta-24 (10 MOs) or were mock infected. Forty-eight hours after adenoviral treatment, the cells were treated with various concentrations of CPT-11. Triplicate wells were used for each condition. Sixteen wells seeded with untreated glioma cells were used as a viability control, and 16 wells containing only complete medium were used as a control for nonspecific dye reduction. Medium was removed 72 hours after drug treatment, and 100 μL 3-(4,5-dimethylthiazol-2-yl)-2,5-diphenyltetrazolium bromide solution (1 mg/mL) was added to each well. The plates were then incubated for an additional 4 hours and then read on a Spectramax 190 microplate reader (Molecular Devices, Sunnyvale, Calif.) at a test wavelength of 570 nm.

U-87 MG cells = assay: as above; type: cell-based; details: Homo sapiens, 48 h
Method: as §2

U87-MG xenografts = assay: Intracranial glioma xenograft, ICOVIR-5 in combination with RAD001 or TMZ; type: in vivo, athymic mice; details: ICOVIR-5 3×10^7 pfu/mouse intratumoral day 3, 5, 7; RAD001 5 mg/kg/d; TMZ 7.5 mg/kg/5 days; control 30.5 days
Method: Animal Studies. U87 MG human glioma cells (5×10^5) were engrafted into the caudate nucleus of athymic mice using a guide-screw system, as previously described (Lal, 2000). The inventors performed three independent experiments using 10 animals per group in each experiment. On days 3, 5, and 7 after implantation of tumor cells, animals were treated with 5 μl intratumoral injections of ICOVIR-5, PBS or adenovirus control (all 3×10^8 pfu/ml). Animals showing general or local symptoms of toxicity were killed. Surviving animals were killed 140 days after tumor implantation. Brains were then removed, fixed in 4% formaldehyde for 24 hours at room temperature, and embedded in paraffin. Hematoxylin-and-eosin-stained sections were evaluated for evidence of tumor, necrosis, and viral nuclear inclusions. The largest (a) and the smallest (b) diameters of the tumors were measures, and these measurements were used in the calculation of tumor volume using the formula a×b2×0.4 (Attia, 1966). […]
Statistical Analysis. […] Data are expressed as mean±SD or 95% confidence intervals (CIs). The in vivo cytopathic effect of ICOVIR-5 on human glioma xenografts was assessed by plotting survival curves according to the Kaplan-Meier method. […]

U-87 MG cell line = assay: In vitro combination of ICOVIR-5 with TMZ or RAD001; type: cell-based, human

Structure (SMILES) | extension of survival (average) over control [1] [days] | cells in the G2-M phase [2] | IC50 ([3]; Homo sapiens, read-out: IC50 for CPT-11, both U-87 MG and U-251 MG cells infected with 2 MOIs of Delta-24) [nM] | inhibition of cell proliferation ([3]; both cell lines, CPT-11 alone) | IC50 (U-251 MG cells; read-out: IC50 dose of CPT-11, U-251 MG cells infected with Delta-24 at 10 MOIs) [µM] | IC50 (U-251 MG cells; read-out: IC50 dose of CPT-11, UVi Delta-24-infected U-251 MG cells) [µM] | IC50 (U-87 MG cells; read-out: IC50 dose of CPT-11, U-87 MG cells infected with Delta-24 at 10 MOIs, CPT-11 added 48 hours later) [nM] | IC50 (U-87 MG cells; read-out: IC50 dose of CPT-11, U-87 MG cells infected with UVi Delta-24, CPT-11 added 48 hours later) [nM] | mean survival (U87-MG xenografts) [days] | effect of drug on adenoviral replication in vitro (fiber expression, western blot and RT-QT-PCR) (U-87 MG cell line)
CCc1c2c(nc3ccc(OC(=O)N4CCC(N5CCCCC5)CC4)cc13)-c1cc3c(c(=O)n1C2)COC(=O)[C@]3(O)CC [CPT-11, irinotecan] | 4 | > 55 % of the cells in culture | 2500 | inhibited cell proliferation in a concentration dependent fashion | 1 | 7.2 | 1500 | 3400 | – | –
CO[C@H]1C[C@@H]2CC[C@@H](C)[C@@](O)(O2)C(=O)C(=O)N2CCCC[C@H]2C(=O)O[C@H]([C@H](C)C[C@@H]2CC[C@@H](OCCO)[C@H](OC)C2)CC(=O)[C@H](C)/C=C(\C)[C@@H](O)[C@@H](OC)C(=O)[C@H](C)C[C@H](C)/C=C/C=C/C=C/1C [RAD001] | – | – | – | – | – | – | – | – | 49 | neither RAD001 nor TMZ suppressed adenoviral replication in vitro
Cn1nnc2c(C(N)=O)ncn2c1=O [TMZ, temozolomide] | – | – | – | – | – | – | – | – | 35.5 | –
